Assay [1] has as its system Mutant TERT. As to the kind of experiment: HepG2 hTERT mRNA assay (qPCR). The conditions noted are these: HepG2 cells (mutated TERT), 48 hours, TERT mRNA via qPCR. It is filed as cell-based, human. On the procedure:
(§1) HepG2 cells (hepatocyte carcinoma (HCC) cells; with mutated TERT) or HEK293T cells (with wild type (wt) TERT) were seeded at 4,000 cells/well in 96-well plates. The following day, test compounds were added to cells for at concentrations of 25 uM, 12.5 uM, 6.25 uM, 3.125 uM, 1.563 uM, 0.781 uM, 0.391 uM, 0.195 uM, 0.098 uM or vehicle control (0.1% DMSO). Each condition was tested in three replicate wells. 48 hours post drug addition, the cells were harvested for RNA using the 96-Magmax RNA Isolation kit (Cat. No. AM1830). RNA was converted to cDNA using the Superscript III First strand cDNA synthesis kit (Cat. No. 18080051). RNA and cDNA concentration and quality were determined using the NanoQuant nucleic acid quantification method. 500 ng cDNA from each sample was used to detect TERT mRNA via qPCR. GUSB was also measured as an internal control and fold change to vehicle control was determined using the delta CT method.
(In general: Quantitative PCR measures a nucleic acid by following its amplification.)

For assay [2], the system named is wt TERT. Nature of the assay: HEK293T hTERT mRNA assay (qPCR). It is filed as cell-based, human. Conditions: Homo sapiens. How it is done: as §1

Where two headings read alike, the source gives them in different places. Bounds are passed on as bounds.

By IC50 is commonly meant the point on the concentration scale where inhibition reaches its midpoint. In assay [1], `O=C(O)CC1CC(c2ccc(C(F)(F)F)cc2)CN(Cc2ccc(C(F)(F)F)cc2)C1` (stereo not shown) [Compound 132] had an IC50 of 500 to 5000 nM.

In assay [1] (Homo sapiens), `O=C(O)C[C@H]1C[C@H](c2ccc(Cl)cc2)CN(Cc2ccc(C(F)(F)F)cc2)C1` (racemic) [Compound 123, Anti-2-(-5-(4-chlorophenyl)-1-(4-(trifluoromethyl)benzyl)piperidin-3-yl)acetic acid] yielded a concentration for half-maximal inhibition (IC50) of less than 500 nM.

Take `O=C(O)C[C@H]1C[C@H](c2ccc(C(F)(F)F)cc2)CN(Cc2ccc(C(F)(F)F)c(F)c2)C1` (racemic) [Compound 130, Anti-2-(1-(3-fluoro-4-(trifluoromethyl)benzyl)-5-(4-(trifluoromethyl)phenyl)piperidin-3-yl)acetic acid]: in assay [1] (Homo sapiens), the IC50 fell in the range of 500 to 5000 nM.

`O=C(O)C[C@@H]1C[C@@H](c2ccc(C(F)(F)F)cc2)CN(Cc2ccc(F)c(F)c2)C1` [Compound 118, 2-((3S,5S)-1-(3,4-difluorobenzyl)-5-(4-(trifluoromethyl)phenyl)piperidin-3-yl)acetic acid]: the IC50 in assay [1] (Homo sapiens) was less than 500 nM.

In assay [1] (Homo sapiens), `C#Cc1ccc([C@H]2C[C@H](CC(=O)O)CN(Cc3ccc(C4(C(F)(F)F)N=N4)cc3)C2)cc1` (racemic) [Compound 136, Anti-2-(5-(4-ethynylphenyl)-1-(4-(3-(trifluoromethyl)-3H-diazirin-3-yl)benzyl)piperidin-3-yl)acetic acid] returned an IC50 of 500 to 5000 nM.

`N#Cc1cccc(CN2C[C@@H](CC(=O)O)C[C@H](c3ccc(C(F)(F)F)cc3)C2)c1` (racemic) [Compound 124, Anti-2-(-1-(3-cyanobenzyl)-5-(4-(trifluoromethyl)phenyl)piperidin-3-yl)acetic acid] registered an IC50 in assay [1] (Homo sapiens) of less than 500 nM.

Molecule `N#Cc1cc(CN2C[C@H](CC(=O)O)C[C@@H](c3ccc(C(F)(F)F)cc3)C2)ccc1Cl` (racemic) [Compound 140, Anti-2-(1-(4-chloro-3-cyanobenzyl)-5-(4-(trifluoromethyl)phenyl)piperidin-3-yl)acetic acid] had an IC50 in assay [1] (Homo sapiens) of 500 to 5000 nM.

As to `COc1cccc(CN2C[C@H](CC(=O)O)C[C@@H](c3ccc(C(F)(F)F)cc3)C2)c1` [Compound 110, 2-((3S,5S)-1-(3-methoxybenzyl)-5-(4-(trifluoromethyl)phenyl)piperidin-3-yl)acetic acid], the IC50 in assay [2] (HEK-293T, wild type TERT, read-out: wt TERT IC50) is greater than 25 µM; in assay [2] (HEK293 cells (wt TERT), 48 hours, class symbols, read-out: wt TERT IC50 uM HEK293) it was greater than 25 µM; in assay [1] (Homo sapiens) it was greater than 25000 nM.

Turning to `O=C(O)C[C@H]1C[C@H](c2ccc(C(F)(F)F)cc2)CN(Cc2ccc(C(F)(F)F)cc2F)C1` (racemic) [Compound 128, Anti-2-(1-(2-fluoro-4-(trifluoromethyl)benzyl)-5-(4-(trifluoromethyl)phenyl)piperidin-3-yl)acetic acid], the IC50 in assay [1] (Homo sapiens) lay in the range of 500 to 5000 nM.

As to `CCC(C(=O)O)[C@@H]1C[C@@H](c2ccc(C(F)(F)F)cc2)CN(Cc2ccc(C(F)(F)F)cc2)C1` (mixture of isomers) [Compound 125, Anti-2-(1-(4-(trifluoromethyl)benzyl)-5-(4-(trifluoromethyl)phenyl)piperidin-3-yl)butanoic acid], in assay [1] (Homo sapiens), the IC50 lay in the range of 500 to 5000 nM.

For the molecule `O=C(O)CC[C@H]1C[C@H](c2ccc(C(F)(F)F)cc2)CN(Cc2ccc(C(F)(F)F)cc2)C1` [Compound 126, Anti-3-(1-(4-(trifluoromethyl)benzyl)-5-(4-(trifluoromethyl)phenyl)piperidin-3-yl)propanoic acid], the IC50 in assay [1] (Homo sapiens) fell in the range of 500 to 5000 nM.

`O=C(O)C[C@H]1C[C@H](c2ccc(C(F)(F)F)c(F)c2)CN(Cc2ccc(C(F)(F)F)cc2)C1` (racemic) [Compound 129, Anti-2-(5-(3-fluoro-4-(trifluoromethyl)phenyl)-1-(4-(trifluoromethyl)benzyl)piperidin-3-yl)acetic acid]: in assay [1] (Homo sapiens), the concentration for half-maximal inhibition (IC50) lay in the range of 500 to 5000 nM.

As for `O=C(O)C[C@H]1C[C@H](c2ccc(Cl)cc2)CN(Cc2ccc(Cl)cc2)C1` (racemic) [Compound 135, Anti-2-(1-(4-chlorobenzyl)-5-(4-chlorophenyl)piperidin-3-yl)acetic acid], the IC50 in assay [1] (Homo sapiens) is less than 500 nM.

`O=C(O)C[C@H]1C[C@H](c2ccc(F)cc2)CN(Cc2ccc(C(F)(F)F)cc2)C1` (racemic) [Compound 122, Anti-2-(5-(4-fluorophenyl)-1-(4-(trifluoromethyl)benzyl)piperidin-3-yl)acetic acid] displayed an IC50 in assay [1] (Homo sapiens) of 500 to 5000 nM.

`[N-]=[N+]=NCc1ccc(CN2C[C@H](CC(=O)O)C[C@@H](c3ccc(N=[N+]=[N-])cc3)C2)cc1` (single isomer, unassigned) [Compound 145] returned an IC50 in assay [1] (Homo sapiens) of 500 to 5000 nM.

`O=C(O)C[C@H]1C[C@H](c2cccc(Cl)c2)CN(Cc2ccc(C(F)(F)F)cc2)C1` (racemic) [Compound 143, Anti-2-(5-(3-chlorophenyl)-1-(4-(trifluoromethyl)benzyl)piperidin-3-yl)acetic acid]: the IC50 in assay [1] (Homo sapiens) lay in the range of 5000 to 25000 nM.

As for `O=C(O)C[C@H]1C[C@H](c2ccc(C(F)(F)F)cc2)CN(Cc2ccc3ccccc3c2)C1` (racemic) [Compound 141, Anti-2-(1-(naphthalen-2-ylmethyl)-5-(4-(trifluoromethyl)phenyl)piperidin-3-yl)acetic acid], the IC50 in assay [1] (Homo sapiens) lay in the range of 500 to 5000 nM.

In assay [1] (Homo sapiens), `C#Cc1ccc(CN2C[C@H](CC(=O)O)C[C@@H](c3ccc(N=[N+]=[N-])cc3)C2)cc1` (single isomer, unassigned) [Compound 144] showed an IC50 of 500 to 5000 nM.

In assay [1] (Homo sapiens), `O=C(O)C[C@H]1C[C@H](c2ccc(C(F)(F)F)cc2)CN(Cc2ccc(C(F)(F)F)cc2Cl)C1` (racemic) [Compound 131, Anti-2-(-1-(2-chloro-4-(trifluoromethyl)benzyl)-5-(4-(trifluoromethyl)phenyl)piperidin-3-yl)acetic acid] displayed a half-inhibitory concentration (IC50) of 500 to 5000 nM.

Regarding `O=C(O)C[C@H]1C[C@H](c2ccc(F)c(F)c2)CN(Cc2ccc(C(F)(F)F)cc2)C1` (racemic) [Compound 121, Anti-2-(-5-(3,4-difluorophenyl)-1-(4-(trifluoromethyl)benzyl)piperidin-3-yl)acetic acid], in assay [1] (Homo sapiens), the IC50 lay within 500 to 5000 nM.

In turn, `C#Cc1ccc([C@@H]2C[C@@H](CC(=O)O)CN(Cc3ccc(C4(C(F)(F)F)N=N4)cc3)C2)cc1` (single isomer, unassigned) [Compound 146] returned an IC50 in assay [1] (Homo sapiens) of 500 to 5000 nM.

The molecule `O=C(O)C[C@@H]1C[C@@H](c2ccc(Cl)cc2)CN(Cc2ccc(Cl)cc2)C1` [Compound 139, 2-((3S,5S)-1-(4-chlorobenzyl)-5-(4-chlorophenyl)piperidin-3-yl)acetic acid] showed an IC50 in assay [1] (Homo sapiens) of 500 to 5000 nM.

With `O=C(O)C[C@@H]1C[C@@H](c2ccc(Cl)cc2)CN(Cc2ccc(C(F)(F)F)cc2)C1` (single isomer, unassigned) [Compound 142], in assay [1] (Homo sapiens), the IC50 is less than 500 nM.

On to `O=C(O)C[C@@H]1C[C@@H](c2ccc(C(F)(F)F)cc2)CN(Cc2ccccc2F)C1` [Compound 119, 2-((3S,5S)-1-(2-fluorobenzyl)-5-(4-(trifluoromethyl)phenyl)piperidin-3-yl)acetic acid], for which the IC50 in assay [1] (Homo sapiens) lay in the range of 500 to 5000 nM.

For `CS(=O)(=O)c1ccc(CN2C[C@H](CC(=O)O)C[C@@H](c3ccc(C(F)(F)F)cc3)C2)cc1` [Compound 120, 2-((3S,5S)-1-(4-(methylsulfonyl)benzyl)-5-(4-(trifluoromethyl)phenyl)piperidin-3-yl)acetic acid], the IC50 in assay [1] (Homo sapiens) was in the range of 500 to 5000 nM.

`C#Cc1ccc([C@H]2C[C@H](CC(=O)O)CN(Cc3ccc(N=[N+]=[N-])cc3)C2)cc1` (racemic) [Compound 137, Anti-2-(1-(4-azidobenzyl)-5-(4-ethynylphenyl)piperidin-3-yl)acetic acid] gave an IC50 in assay [1] (Homo sapiens) of 500 to 5000 nM.

In assay [1] (Homo sapiens), `O=C(O)C[C@@H]1C[C@@H](c2ccc(C(F)(F)F)cc2)CN(Cc2ccc(F)cc2)C1` [Compound 117, 2-((3S,5S)-1-(4-fluorobenzyl)-5-(4-(trifluoromethyl)phenyl)piperidin-3-yl)acetic acid] displayed an IC50 of 500 to 5000 nM.

Turning to `O=C(O)C[C@H]1C[C@H](CCc2ccc(C(F)(F)F)cc2)CN(Cc2ccc(C(F)(F)F)cc2)C1` (racemic) [Compound 133, Anti-2-(1-(4-(trifluoromethyl)benzyl)-5-(4-(trifluoromethyl)phenethyl)piperidin-3-yl)acetic acid], the IC50 in assay [1] (Homo sapiens) is 500 to 5000 nM.

Consider `O=C(O)C[C@H]1C[C@H](c2ccc(C(F)(F)F)cc2)CN(Cc2ccccc2)C1` (racemic) [Compound 138, Anti-2-(1-benzyl-5-(4-(trifluoromethyl)phenyl)piperidin-3-yl)acetic acid], for which the IC50 in assay [1] (Homo sapiens) was in the range of 500 to 5000 nM.

In turn, `O=C(O)C[C@@H]1C[C@@H](c2ccc(C(F)(F)F)cc2)CN(Cc2ccc(Cl)cc2)C1` [Compound 116, 2-((3S,5S)-1-(4-chlorobenzyl)-5-(4-(trifluoromethyl)phenyl)piperidin-3-yl)acetic acid] registered a half-inhibitory concentration (IC50) in assay [1] (Homo sapiens) of 500 to 5000 nM.

The molecule `N#Cc1cccc([C@H]2C[C@H](CC(=O)O)CN(Cc3ccc(C(F)(F)F)cc3)C2)c1` (racemic) [Compound 127, anti-2-(5-(3-cyanophenyl)1-(4-(trifluoromethyl)benzyl)piperidin-3-yl)acetic acid] showed an IC50 in assay [1] (Homo sapiens) of 500 to 5000 nM.

In assay [1] (Homo sapiens), `[N-]=[N+]=NCc1ccc(CN2C[C@@H](CC(=O)O)C[C@H](c3ccc(N=[N+]=[N-])cc3)C2)cc1` (racemic) [Compound 134, anti-2-(1-(4-(azidomethyl)benzyl)-5-(4-azidophenyl)piperidin-3-yl)acetic acid] showed an IC50 of 500 to 5000 nM.
